Measured values: US12378508B2, “Organ-on-chips that mimic human pregnancy and parturition” (The Texas A&M University System, priority 2020, dated 2025)

Legend:
[1] = tested on: amnion epithelial cells (AECs); experiment: Cell migration through type IV collagen-filled microchannels of AM-OOC (bright field microscopy); assay type: cell-based, human; settings: coculture, OS (CSE) cotreatment in both chambers
From the text: Before using the AM-OOC, devices were washed 3 times with PBS and coated with Matrigel as previously described. The next day, devices were washed 3 times with complete DMEM-F12 medium before cell seeding. Primary cells were then trypsinized and stained with live cell dyes for green fluorescent protein (GFP) (for AEC; CellLight Histone 2B-GFP) or red fluorescent protein (RFP) (for AMC; CellLight Histone 2B-RFP) following the protocol provided by the company (10594 and 10595; Thermo Fisher Scientific, Waltham, MA, USA). Then, 120,000 AECs were loaded into the outer chamber, and 40,000 AMCs were loaded into the inner chamber of the AM-OOC. The AM-OOCs were incubated at 37° C. with 5% CO2 for 24 h before localized treatment (see next section).
To test the effect of OS on cellular transition in the amnion membrane, each AM-OOC was treated with one of the following for 48 h: 1) normal cell culture conditions (control DMEM-F12 medium); 2) OS conditions [induced by treating cells with cigarette smoke extract (CSE)] diluted 1:25 in AEC medium or diluted 1:75 in AMC medium; and 3) to verify the effect of OS, cells were cotreated with an OS inducer (CSE) and an antioxidant or stress signaler p38 MAPK inhibitor [N-acetyl-L-cysteine (NAC, 15 mM, A7250; MilliporeSigma] (23, 29) and SB203580 ([…], S8307; MilliporeSigma) (23, 29), a p38 MAPK inhibitor and a known inducer of EMT. […]

[2] = tested on: maternal decidua (DECI) chamber; experiment: LPS induced inflammation propagation in FMI-OOC, cytokines in cell supernatant; assay type: cell-based
Protocol: (§1) FIG. 12A illustrates after lipopolysaccharide (LPS) treatment in the AEC chamber for 24, 48, or 72 hours, cell supernatants were collected from each cell chamber within the FMI-OOC to document LPS induced inflammation propagation. LPS induced an increase in AEC IL-8 production at 24 and 48 hours, which reached the maternal decidua chamber by 72 hours, causing an increase in IL-8. Documenting LPS induced fetal inflammation can reach the maternal compartment in 72 hours within an FMI-OOC device.
(§2) FIG. 12B illustrates after LPS treatment in the maternal decidua (DECI) chamber for 24, 48, or 72 hours, cell supernatants were collected from each cell chamber within the FMI-OOC to document LPS induced inflammation propagation. LPS induced an increase in DECI IL-6 production at 24, which reached the fetal AEC chamber by 24 hours, causing a rise in IL-8 that increased over 72 hours. Documenting LPS induced maternal inflammation can reach the fetal compartment in 72 hours within an FMI-OOC device.
(§3) The device described here expands the previously described two-chamber coculture model into a four-chamber coculture model to include both fetal and maternal cell components. The fetal membrane-decidua interface model (FMI-OOC) composed of four coculture compartments interconnected through arrays of microfluidic channels (FIG. 10 and FIG. 11). Here, three cell types from the fetal side (AEC, AMC, chorion mesenchymal cells (CMC)/chorion trophoblast (CT)) and one from the maternal side (decidua cells) were used, establishing the first OOC model that contains both fetal and maternal cells. Cell loading concentration into each chamber mimicked those of in utero cell ratios of the fetal membrane tissue. The microfluidic channel array prevents cells from flowing into the neighboring compartments during initial cell loading, allow localized drug treatment of each cell layer, and allow taking supernatant from each layer independently for local biochemical analysis. At the same time, these channels allow biochemicals to diffuse between the layers, and also permit cell migration and transition.

AEC chamber = experiment: as above; assay type: cell-based
Protocol: as §1, §2, §3

Compound | effect on OS cotreatment-induced AEC transition, blocked migration and increased inflammation [1] | IL-8 in maternal decidua chamber ([2]; LPS treatment in the AEC chamber, by 72 hours) | DECI IL-6 production ([2]; LPS treatment in the maternal decidua (DECI) chamber, at 24) | AEC IL-8 production (AEC chamber; LPS treatment in the AEC chamber, at 24 and 48 hours) | IL-8 in fetal AEC chamber (AEC chamber; LPS treatment in the maternal decidua (DECI) chamber, from 24 hours, increased over 72 hours)
CC(=O)N[C@@H](CS)C(=O)O [NAC, N-acetyl-L-cysteine] | prevented |  |  |  | 
lipopolysaccharide [LPS] |  | increase | increase | increase | rise
